The experiment relates to HeLa 21-4 cells. Description: Combination of Procedures 1 and 2 for detection of DNA breaks in isolated chromatin of HeLa cells. In kind it is cell-based. Particulars: H2O2 4 mM, 30 minutes; control 6.0±0.1. Here is the method: In this Example, HeLa 21-4 cells (obtained from P.R. Cook, University of Oxford) were seeded on 6-well plates and cultured for 48 hours in DMEM supplemented with 10% FBS until the culture reached 100% confluency (number of cells: 1.2×10^6 per 1 well). Next, cells were treated with the DNA damaging agent H2O2 which was added directly to the growth medium (final concentration: 4 mM). The cells were incubated at 37° C. for 30 minutes in the standard cell culture incubator with CO2 level control. The control, untreated cells and the damaged cells (H2O2) were then harvested using 0.5 ml trypsin and transferred to 1.5 ml Eppendorf tubes. Afterwards, trypsin was inactivated by adding 0.5 ml DMEM supplemented with 10% FBS. Subsequently, cells were spun down in the table top centrifuge (Eppendorf centrifuge, 5417 C, rotor: F45-30-11) (1700 rpm, 5 minutes, room temperature). The cell pellet was resuspended in 10 mM Tris (pH 8.8), a small aliquot of the cells in suspension (50 μl) was transferred to a new 1.5 ml Eppendorf tube and spun down in the table top centrifuge (1 minute, 14000 rpm, room temperature). The supernatant was discarded and the washing step in the same volume (50 μl) of 10 mM Tris (pH 8.8) was repeated (centrifugation in the table top centrifuge (1 minute, 14000 rpm, room temperature)). […]

In the case of `OO` [H2O2], the “fluorescence intensity (mean grey value) of immobilized modified DNA” value was 8.9±0.1 a.u.

Values taken from patent US20200255884A1, “METHOD OF DETECTION OF DNA END(S) AND ITS USE” (INTODNA SP. Z O.O., priority 2017, published 2020).
